# Test results taken from patent US8124784B2, “Palladium metal complex” (Nagasaki University, priority 2008, dated 2012).
# Test: Solubility of the metal complex A in organic solvents
# Assay type: physicochemical
# Method: The solubility of the metal complex A in organic solvents was tested.
substance,measurement,setting,value
[Pd2Au2Cl2(μ-dmpz)4(dmpzH)2] [metal complex A],solubility in organic solvent,acetone,insoluble
same,solubility in organic solvent,acetonitrile,insoluble
same,solubility in organic solvent,benzene,slightly soluble
same,solubility in organic solvent,chloroform,soluble
same,solubility in organic solvent,diethyl ether,insoluble
same,solubility in organic solvent,ethanol,insoluble
same,solubility in organic solvent,hexane,insoluble
same,solubility in organic solvent,methanol,insoluble
same,solubility in organic solvent,methylene chloride,soluble
same,solubility in organic solvent,toluene,slightly soluble
